These results are taken from patent publication US20050064442A1, “Methods for identifying risk of breast cancer and treatments thereof” (priority 2002, published 2005).

This experiment deals with cell lines where RAD21 expression is inhibited using siRNA. As to the kind of experiment: Clonogenic survival assay. The class given is cell-based.

Protocol: Clonogenic survival assays measure survival of cells after treatment with cytotoxic agents. In this particular assay the aim is to investigate the effect of downregulating RAD21 expression on sensitivity to therapeutically relevant DNA damaging agent.
Cells were transfected with siRNA against RAD21, siRAD21—272, to reduce expression of RAD21. […] Cells were then trypsinized and replated at 200 cells per plate. Cells were grown for 11-12 days, fixed and stained with crystal violet to detect colonies. Colonies were then counted.
The data were fitted to a curve and the DRF values calculated from the fitted curves of siRAD21 and Lipofectamine.

Consider bleomycin, for which, for the setting “cell lines where RAD21 expression is inhibited using siRNA, FIGS. 9 and 10”, the “sensitivity to drug in clonogenic survival” value is “increased sensitivity”. For the same substance, the “DRF20 (factor by which the dose can be reduced in the presence of decreased RAD21 expression)” value (cells transfected with siRAD21—272, drug exposure 2 hours, two days after transfection, colonies counted after 11-12 days, from fitted curves of siRAD21 and Lipofectamine) was 1.15.
